Earlier results on 1 compound are cited in patent publication US20160220512A1, “MODIFIED RELEASE PHARMACEUTICAL FORMULATIONS” (RUBICON RESEARCH PRIVATE LIMITED, priority 2013, published 2016).

For series [1] the following is noted: memantine and its salts.
Series [2] deals with N-methyl d-aspartate (NMDA) receptor. The conditions noted are these: uncompetitive NMDA receptor antagonist.

For the compound `CC12CC3CC(C)(C1)CC(N)(C3)C2` [Memantine, 1-amino-3,5-dimethyladamantane], in series [1], the BCS classification entry is recorded as “BCS Class I”, the permeability entry is reported as “highly permeable” and the solubility entry is listed as “highly soluble”. Also, the “affinity for the receptor” value in series [2] is on record as “moderate affinity”.
